In assay [1] the target is Mothers against decapentaplegic homolog 2 (Homo sapiens, UniProt Q15796). Nature of the assay: Inhibition of SMAD2 (unknown origin).
A short description of assay [2]: Inhibition of MPC (unknown origin). Also noted: species or system Homo sapiens.

The term IC50 denotes the concentration needed to halve the response being measured. A lower IC50 goes with greater potency in that assay.

Chain of Mothers against decapentaplegic homolog 2 (Q15796 whole entry): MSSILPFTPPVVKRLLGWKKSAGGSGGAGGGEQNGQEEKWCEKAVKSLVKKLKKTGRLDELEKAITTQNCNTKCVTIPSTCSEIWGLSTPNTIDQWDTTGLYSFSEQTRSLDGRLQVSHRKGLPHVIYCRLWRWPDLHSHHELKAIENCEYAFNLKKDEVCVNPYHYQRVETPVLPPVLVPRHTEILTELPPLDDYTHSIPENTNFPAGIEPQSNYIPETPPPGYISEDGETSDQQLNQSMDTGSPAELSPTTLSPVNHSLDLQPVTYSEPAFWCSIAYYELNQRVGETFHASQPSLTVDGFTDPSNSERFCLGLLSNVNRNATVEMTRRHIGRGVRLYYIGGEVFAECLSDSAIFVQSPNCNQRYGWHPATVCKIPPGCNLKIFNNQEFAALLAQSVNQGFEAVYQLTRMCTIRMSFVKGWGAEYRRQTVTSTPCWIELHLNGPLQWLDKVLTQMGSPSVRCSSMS

`Cc1csc(-c2nc[nH]c2-c2ccc3ncsc3c2)n1`: it took 8.7 nM to reach half-maximal inhibition in assay [1] (IC50).
Compound `N#C/C(=C\c1cn(-c2ccccc2)c2ccccc12)C(=O)O` had an IC50 in assay [2] of 16.6 nM.
